This is an account of results in US8143025B2, “Antibodies against vascular endothelial growth factor receptor-1” (ImClone LLC, priority 2004, dated 2012).

For assay [1], the target named is T1, mouse VEGFR-I Fc (Mus musculus, UniProt P35969).
T1 sequence (P35969 23-759 limits assumed): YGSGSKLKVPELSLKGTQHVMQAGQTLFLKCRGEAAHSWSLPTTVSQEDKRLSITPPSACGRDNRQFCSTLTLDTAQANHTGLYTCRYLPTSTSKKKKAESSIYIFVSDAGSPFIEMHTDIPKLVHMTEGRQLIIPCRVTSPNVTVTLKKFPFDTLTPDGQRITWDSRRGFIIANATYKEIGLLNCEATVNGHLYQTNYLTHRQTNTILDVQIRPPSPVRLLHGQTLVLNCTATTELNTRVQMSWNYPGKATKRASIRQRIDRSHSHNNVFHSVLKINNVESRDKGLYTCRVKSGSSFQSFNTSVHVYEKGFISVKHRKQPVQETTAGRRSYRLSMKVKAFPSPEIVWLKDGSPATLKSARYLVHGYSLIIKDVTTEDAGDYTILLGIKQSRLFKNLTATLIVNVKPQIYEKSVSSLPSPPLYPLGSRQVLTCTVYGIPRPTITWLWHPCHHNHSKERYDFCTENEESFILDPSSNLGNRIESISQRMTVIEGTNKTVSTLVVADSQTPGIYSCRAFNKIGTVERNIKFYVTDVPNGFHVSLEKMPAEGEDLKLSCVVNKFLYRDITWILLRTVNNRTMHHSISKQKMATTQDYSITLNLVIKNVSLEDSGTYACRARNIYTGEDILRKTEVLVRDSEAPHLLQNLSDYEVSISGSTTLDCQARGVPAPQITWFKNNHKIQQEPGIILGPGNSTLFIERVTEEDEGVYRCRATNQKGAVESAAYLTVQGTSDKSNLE
Nature of the assay: ELISA-based specificity assay (Example 2A). It counts as binding. The note with it: FIG. 6B. The procedure: (§1) To determine the specificity of an anti-VEGFR-1 monoclonal antibody to human VEGFR-I, purified antibodies 18F1 were tested in an ELISA-based assay. One μg/ml of recombinant human VEGFR-I Fc, mouse VEGFR-I Fc, mouse VEGFR-2 Fe, or human VEGFR-2 alkaline phosphatase was coated with PBS in a 96-well microtiter plates at 4° C. over night. After wash, the receptor coated plates were blocked with PBS containing 5% Dry Milk and 0.05% Tween 20. Serial dilutions of primary antibody 18F1 to human VEGFR-I, MF1 to mouse VEGFR-I. ICl 1 to human VEGFR-2, or DClOl to mouse VEGFR-2 were incubated in the receptor-coated plates for 30 minutes. After wash secondary anti-primary HRP conjugate antibodies was incubated in the plates for 30 minutes. Plates were washed and incubated with the substrate TMB (3,3′,5,5′-tetra-methylbenzidine) for color development. The absorbance at 450 nm was read as OD values for quantification of binding activity of antibodies. Data were analyzed using a GraphPad Prism Software.

Assay [2] deals with mouse VEGFR-2 (Mus musculus, UniProt P35918). Nature of the assay: ELISA-based specificity assay (Example 2A). Format: binding. The following applies: FIG. 6D. The procedure: as §1
Sequence of mouse VEGFR-2 (P35918 20-762 limits assumed): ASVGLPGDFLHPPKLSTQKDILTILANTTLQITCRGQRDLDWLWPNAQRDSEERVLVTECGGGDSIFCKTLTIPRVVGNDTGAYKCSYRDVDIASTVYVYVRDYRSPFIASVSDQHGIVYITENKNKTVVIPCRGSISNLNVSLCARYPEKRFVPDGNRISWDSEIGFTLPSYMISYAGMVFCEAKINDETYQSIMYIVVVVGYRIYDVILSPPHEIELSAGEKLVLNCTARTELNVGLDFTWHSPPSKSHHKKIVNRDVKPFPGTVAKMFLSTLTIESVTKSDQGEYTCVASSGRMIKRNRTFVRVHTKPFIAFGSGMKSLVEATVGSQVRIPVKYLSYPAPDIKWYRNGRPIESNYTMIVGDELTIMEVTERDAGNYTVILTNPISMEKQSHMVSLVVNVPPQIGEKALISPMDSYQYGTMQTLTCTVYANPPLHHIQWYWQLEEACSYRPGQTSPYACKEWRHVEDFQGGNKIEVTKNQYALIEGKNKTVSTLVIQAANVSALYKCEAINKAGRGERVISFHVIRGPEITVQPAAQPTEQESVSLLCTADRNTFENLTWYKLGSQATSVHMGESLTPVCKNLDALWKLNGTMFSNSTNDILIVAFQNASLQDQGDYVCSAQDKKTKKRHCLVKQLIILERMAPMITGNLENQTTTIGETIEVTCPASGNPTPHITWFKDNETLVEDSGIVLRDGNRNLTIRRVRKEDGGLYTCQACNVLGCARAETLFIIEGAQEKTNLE
On the technique in general: ELISA stands for enzyme-linked immunosorbent assay.

Assay [3] deals with human VEGFR-2 alkaline phosphatase (Homo sapiens, UniProt P35968). Nature of the assay: ELISA-based specificity assay (Example 2A). Format: binding. The following applies: FIG. 6C. The procedure: as §1
Sequence of human VEGFR-2 alkaline phosphatase (P35968 20-764 limits assumed): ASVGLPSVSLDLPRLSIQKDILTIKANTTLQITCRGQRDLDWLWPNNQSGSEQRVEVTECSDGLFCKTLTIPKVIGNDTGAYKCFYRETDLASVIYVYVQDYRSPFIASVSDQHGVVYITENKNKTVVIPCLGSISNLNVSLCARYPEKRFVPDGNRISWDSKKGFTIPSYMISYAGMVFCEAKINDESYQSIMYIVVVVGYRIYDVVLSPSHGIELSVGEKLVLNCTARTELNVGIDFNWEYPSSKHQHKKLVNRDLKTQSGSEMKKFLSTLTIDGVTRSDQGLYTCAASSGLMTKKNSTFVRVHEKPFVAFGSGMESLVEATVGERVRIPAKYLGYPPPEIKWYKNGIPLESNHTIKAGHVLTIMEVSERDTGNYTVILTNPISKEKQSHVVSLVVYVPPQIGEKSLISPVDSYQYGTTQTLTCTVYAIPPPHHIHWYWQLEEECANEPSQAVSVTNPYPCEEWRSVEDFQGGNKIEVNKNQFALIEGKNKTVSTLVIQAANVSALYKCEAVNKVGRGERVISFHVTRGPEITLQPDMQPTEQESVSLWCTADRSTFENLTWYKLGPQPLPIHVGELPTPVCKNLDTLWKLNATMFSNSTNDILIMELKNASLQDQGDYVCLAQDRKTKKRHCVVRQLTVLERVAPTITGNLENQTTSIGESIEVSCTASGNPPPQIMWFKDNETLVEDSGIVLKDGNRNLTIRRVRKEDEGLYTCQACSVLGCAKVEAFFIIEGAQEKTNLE
The test system of assay [4] is MDA-MB-231 xenograft. Nature of the assay: MDA-MB-231 breast tumor xenograft. Format: in vivo, mouse.
Protocol: Mice in control groups received an equal volume of saline solution. Treatment of animals was continued for the duration of the experiment. Tumors were measured twice each week with calipers. Tumor volumes were calculated using the formula [π/6 (w1×w2×w2)], where “w1” represents the largest tumor diameter and “w2” represents the smallest tumor diameter. […] When tumors reached approximately 200-300 mm^3, mice were randomized by tumor size and divided into treatment groups. Tumor growth was evaluated approximately twice weekly, with tumor volume calculated as π/6* (Length*Width^2), where Length=longest diameter and Width=diameter perpendicular to Length. Tumor dimensions were measured with calipers. T/C % was calculated as 100*(Final Treatment Tumor Volume/Initial Treatment Tumor Volume)/(Final Control Tumor Volume/Initial Control Tumor Volume). […] The effect of treatment on tumor growth was analyzed using repeated measures analysis of variance (RM ANOVA), p<0.05 was considered significant. […] Antibody treatments administered at a constant dose per mouse were administered in a volume of 0.5 mL per mouse. Antibody and cytotoxic treatments administered at a dose proportional to body weight were given in a volume of 10 μL per gram body weight. […] AU treatments were administered i.p. The effect of treatments on tumor growth were analyzed using repeated measures analysis of variance (RM ANOVA), p<0.05 was considered significant.
Assay [5] relates to GEO xenograft. Nature of the assay: GEO colon cancer xenograft. Format: in vivo, mouse. The note with it: monotherapy, FIG. 26C. The procedure:
Female athymic nu/nu mice, 6-8 weeks of age, were injected subcutaneously on the lateral dorsal surface with 0.4 mL volume of a suspension containing a human tumor cell line in media, diluted 1:1 with MATRIGEL™ (BD Biosciences). The cell lines used in xenograft models, with the cell doses indicated in parenthesis (10^6 cells/mouse), were: human colon carcinoma cell lines DLD-I (5), GEO (5) and HT-29 (5); human breast carcinoma cell lines DU4475 (2), MDA-MB-231 (5), MDA-MB-435 (5), and BT474 (5). When tumors reached approximately 200-300 mm^3, mice were randomized by tumor size and divided into treatment groups. Tumor growth was evaluated approximately twice weekly, with tumor volume calculated as π/6* (Length*Width^2), where Length=longest diameter and Width=diameter perpendicular to Length. Tumor dimensions were measured with calipers. T/C % was calculated as 100*(Final Treatment Tumor Volume/Initial Treatment Tumor Volume)/(Final Control Tumor Volume/Initial Control Tumor Volume).
18F1 was diluted in 0.9% USP saline (Braun) or phosphate buffered saline (PBS) and administered intraperitoneally in a volume of 0.5 mL per mouse. The effect of treatment on tumor growth was analyzed using repeated measures analysis of variance (RM ANOVA), p<0.05 was considered significant.

Consider “18F1: human anti-VEGFR-1 monoclonal antibody clone; VL SEQ ID NO: 16, VH SEQ ID NO: 20 [Clone 18F1]”, for which the “cross reactivity with mouse VEGFR-I” value in assay [1] is “no cross reactivity”. The “cross reactivity with mouse VEGFR-2” value in assay [2] is “no cross reactivity”. Besides, the “cross reactivity with human VEGFR-2” value in assay [3] is recorded as “no cross reactivity”. Also, the “tumor growth of the MDA-MB-231 xenograft” value in assay [4] (0.5 or 1 mg per dose three times each week, ANOVA p<0.05, FIG. 20B) was “statistically significant suppression”. For the same substance, in assay [4] (Example 9, intraperitoneal, p<0.05), the “growth of MDA-MB-231 xenograft tumors” value is “significantly (p<0.05) suppressed”. Moreover, the “tumor growth inhibition, MDA-MB-231 xenograft” value in assay [4] (Example 11, p<0.05, FIG. 28A) is listed as “significant tumor growth inhibition”. Moreover, the “antitumor effect against GEO colon cancer xenografts” value in assay [5] was “significant antitumor effect”.
